# According to a melting point compilation (Tetko et al.; mined from patent text by program, amines drawn as free bases though some values may be those of a salt):
row,SMILES,melting point
1,CCCC(=O)Nc1cccc(N(CCO)CCO)c1,88 to 90 °C
2,CC(C)(C)OC(=O)NC(CC1CCCCC1)C(O)C(O)C(CC1CCCCC1)NC(=O)OC(C)(C)C (centres undefined),224 to 226 °C
3,"CN(C)C1CCn2c1nc1cc(NC(=O)c3cc4cc(C(F)(F)F)ccc4n3Cc3cccc(F)c3)cnc12 (single isomer, unassigned; (-))",203 to 205 °C
4,CC(C)c1cc(C(C)C)c(CC(=O)NS(=O)(=O)Oc2c(C(C)C)cc(NS(C)(=O)=O)cc2C(C)C)c(C(C)C)c1,164 to 166 °C
5,CCOc1cc([C@H]2COCC[C@H]2NC(=O)c2ccc(C(=O)OC)cc2)ccc1OC,166 to 168 °C
6,CC(=O)Nc1ccc(C2=NNC(=S)NC2C)cc1 (centres undefined),222 to 226 °C
7,Cn1cc(Br)nc(Br)c1=O,94 to 95 °C
8,CNC(=S)C1(c2cncc(Br)c2)CCCCC1=O (centres undefined),201 to 203 °C
9,Cc1ccc(Nc2c3ccccc3nc3c(C)cccc23)cc1NC(=O)Oc1ccc(N(CCCl)CCCl)cc1,154 to 156 °C
10,CCCCCCCCOC(=O)C1=CC(=O)C(C(=O)OCCCCCCCC)=C(S(=O)(=O)c2ccc(C)cc2)C1=O,75 to 77 °C
11,CCC1(C)CC(=NO)C(C)C(C)(CC)N1OC(C)c1ccccc1 (centres undefined),130 to 145 °C
12,CCC1CC2C3CCC4=CC(=O)CCC4C3CCC2(C)C1OC(=O)CO (centres undefined),156 to 157 °C
13,O=C1C(=Cc2ccc(Cl)cc2)N2CCC1CC2,108 to 110 °C
14,CCn1c(C(C)NS(=O)(=O)c2ccc(Cl)c(Cl)c2)cnc1Oc1ccc(C)cc1 (centres undefined),142 to 144 °C
15,Cc1cc(S(=O)(=O)c2ccccc2)ccc1[N+](=O)[O-],70 to 71 °C
16,COc1c(O)c(C)c2c(c1OC)Nc1ccccc1S2,218 to 220 °C
17,CC(C)(C)c1nc(C=O)nc(C(C)(C)C)c1O,187 to 189 °C
18,O=C1Nc2cccnc2N(CCCCCCN2CCCCC2)c2ccccc21,131 to 132 °C
19,COc1cc(CN2CCC(=C3c4ccccc4CCn4ccnc43)CC2)cc(OC)c1OCc1ccc2ccccc2n1,215 °C
20,N#Cc1ccc(C(Cc2ccc(C(F)(F)F)cn2)Cn2cncn2)cc1 (centres undefined),78 °C
21,COc1ccc(-c2c(Cl)c(CNS(=O)(=O)c3ccccc3)nc3sc4c(c23)CCN(Cc2ccccc2)C4)cc1OC,153 to 154 °C
22,O=C1NCCN1c1ccccc1,154 to 156 °C
23,O=C(NC(C(=O)O)C1CC(Cl)=NO1)OCC1c2ccccc2-c2ccccc21 (centres undefined),175 to 176 °C
24,CC(C)(C)C(=O)Nc1nc(O)c2cc(C=CCOC3CCCCO3)cnc2n1 (centres undefined),166 to 167 °C
25,CCNc1ccc(NC(=O)c2ccc(C)c(Nc3nccc(-c4cccnc4)n3)c2)cc1C(F)(F)F,178 to 180 °C

row,SMILES,melting point
1,CCCn1c(=O)c2c(nc(CO)n2C)n(CCC)c1=O,111 to 112 °C
2,CC1N(C(=O)c2ccc(OCC(F)(F)C(F)F)cc2)CC(=O)OC1(Cn1cncn1)c1ccc(Cl)cc1Cl (centres undefined),88 to 94 °C
3,Cc1ccc(C)n1S(=O)(=O)c1ccc(CC(=O)c2ccccc2)cc1,94.6 to 98.8 °C
4,CCN(CC)c1c(C(=O)O)ccc(OC)c1OC,57 to 62 °C
5,O=C1Cn2cncc2CN1Cc1ccc(F)cc1,112 to 114 °C
6,CCOC(=O)c1nn(-c2c(Cl)cc(C(F)(F)F)cc2Cl)cc1OC(F)(F)C(F)Cl (racemic),105 to 106 °C
7,CC(C)Oc1ccc(NCCS(=O)(=O)NCCCOc2cccc(CN3CCCCC3)c2)cc1,110 to 122 °C
8,CCOC(=O)CC(=NNc1ccc(C(=O)O)cc1C)C(C)=O,161 to 162 °C
9,Nc1c(Br)cc(S(N)(=O)=O)cc1C(F)(F)F,248 to 252 °C
10,Cc1ccc(C2c3c(C)c(NC(=O)c4ccc5c(c4)OCO5)c(C)c(C)c3OC2(C)C)cc1 (centres undefined),164 to 165 °C
11,COc1cccc(CNS(=O)(=O)c2ccc(C(CC3CCCC3)C(=O)Nc3nc4ccc(OC)nc4s3)cc2)c1 (centres undefined),179 to 181 °C
12,Cc1c(NCc2ccccc2)c2c(c3c1C(c1ccc(C(C)C)cc1)CO3)CCCC2 (centres undefined),98 to 99 °C
13,CC(=O)n1c2ccccc2c2nc3ccccc3cc21,163 to 165 °C
14,CCC(=CC(CNC(=O)c1ccncn1)=NO)C(C)[N+](=O)[O-] (centres undefined),150 to 152 °C
15,CCOC(=O)C(=O)c1ccccc1C(=O)c1ccc(Cl)cc1,79 to 81 °C
16,COc1ccc(N2CCN(C(=O)C(C)(C)C3OCCc4ccccc43)CC2)cc1 (centres undefined),120 to 121 °C
17,COc1ccc2ccc(N3C(=O)C4=C(SCCO4)C3=O)nc2n1,255 °C
18,CCCn1nc2c(N)nc3ccccc3c2c1CC(C)(C)C(N)=O,224 to 225 °C
19,NCC1Cc2cccc(-c3ccsc3)c2O1 (centres undefined),> 200 °C
20,CCOC(=O)C1=CC2(CCC1S(=O)(=O)Nc1ccc(F)cc1Cl)OCCCCO2 (centres undefined),142 to 144 °C
21,CN(C)C(=O)CCC(NC(=O)C=Cc1ccco1)C(=O)N(C)C (centres undefined),178 to 180 °C
22,Cc1ccc(S(=O)(=O)NC(=O)C2C(=O)CC(c3ccccc3)CC2=O)cc1 (centres undefined),164 to 166 °C
23,CN(C)S(=O)(=O)c1cccc2cccc(O)c12,95 °C
24,CC(O)C=Cc1ccc2c(c1)Cc1ccccc1-2 (centres undefined),153 °C
25,ON=C1CCN(CC2c3ccccc3CCc3ccccc32)CC1,199 to 202 °C

row,SMILES,melting point
1,COc1ccc(-c2cc(CN3C(=O)c4ccccc4C3=O)c(=O)n(Cc3ccc(Cl)cc3)n2)cc1F,212 to 214 °C
2,Cc1nnc(-c2ccc3occ(-c4cc(C(F)(F)F)ccc4Cl)c3c2)o1,188 to 189 °C
3,CC(C)c1nccc2c(CC(=O)O)cccc12,181 to 182 °C
4,Nc1cc(Cl)c(Cl)c(Br)c1N,128 to 129 °C
5,COc1ccccc1Nc1c(C(=O)c2ccccc2)cnc2c(OC)cccc12,200 to 202 °C
6,Nc1ncnc2sc(Cc3ccccc3)c(-c3ccc(NS(=O)(=O)c4ccccc4)cc3)c12,100 to 105 °C
7,COc1cc(CNC(=O)c2ccc3c(c2)c(=O)n(Cc2ccccc2)c(=O)n3C)ccc1O,183 °C
8,Oc1cccc2c1CCCC2N1CCCC1 (centres undefined),151 to 153 °C
9,CCCCOc1ccc(S(=O)(=O)N2CCC(OS(C)(=O)=O)C2)cc1 (centres undefined),80 to 81 °C
10,Cc1noc(NS(=O)(=O)c2ccccc2-c2ccc(-c3ncco3)cc2CN(C)C(=O)C(C)(C)c2ccccc2)c1C,130 to 138 °C
11,CCOC(=O)CC(NC(=O)C1CCCCC1)C(=O)c1ccco1 (centres undefined),58 to 61 °C
12,COc1cc2nc(C(=O)O)c(=O)n(C)c2cc1OC,261 °C
13,CC(C)(c1ccccc1)N(C(N)=O)C(C)(C)c1ccccc1,226 to 227 °C
14,Cc1c(C(=O)Nc2ccc(N3CCCCC3)c(C#N)c2)cnn1-c1ccc(F)cc1,196 to 197 °C
15,C=CCOc1cc(COC2CCCCO2)ccc1OCCI (centres undefined),103 to 104 °C
16,C=C(CN(C)C)C(O)c1ncc2c(c1O)COC2c1ccccc1 (centres undefined),210 to 215 °C
17,O=C(Nc1ccc(Cl)c(C(F)(F)F)c1)N1COc2cc(OCc3ccccc3)ccc21,135 to 136 °C
18,CN1C(=O)CCC(C)(C)c2ccc(NC(=O)c3ccc(C(=O)O)cc3)cc21,> 250 °C
19,Nc1ccnc(N)c1I,140 °C
20,O=C(O)c1ccc(CNc2cc(Br)ccc2OCc2ccccc2)cc1,216 to 217 °C
21,COc1ccccc1N1CCN(CCN2C(=O)c3ccccc3C2=O)CC1,76 to 81 °C
22,O=C(CCCl)N(O)c1ccccc1,87 to 88 °C
23,O=C(O)CCNC(=O)NCC(CS)c1ccccc1 (centres undefined),88 to 90 °C
24,CC1(C)Nc2ncc(I)cc2N(Cc2cc(F)ccc2F)C1=O,198 to 201 °C
25,CCCn1c(=O)c2c(nc(/C=C/c3ccc(OC(=O)c4ccccc4)c(OC)c3)n2C)n(CCC)c1=O,156 to 157 °C

row,SMILES,melting point
1,CCCCCCCCc1ccc(CCC(CO)(CO)NC(C)=O)cc1,66 to 68 °C
2,CN(C)c1ccc(-c2nc(Cl)c(C#N)n2Cc2ccccc2)cc1,125 to 127 °C
3,COc1cc2nc(N3CCN(c4ccnc(Cl)n4)CC3)cc(N)c2cc1OC,266 °C
4,CC(=O)NC[C@H]1CN(c2ccc(N3CCN(C(=O)OC(C)(C)C)CC3)c(F)c2)C(=O)O1,153 to 159 °C
5,FC(F)(F)c1cccc(-c2cc(C(F)(F)F)n3cnc(-c4ccncc4)c3n2)c1,258 °C
6,COCCNC(N)=Nc1ccccc1N1CCOCC1,125 to 128 °C
7,CCCCCCCCCCCCCC(=O)NN,107 to 111 °C
8,O=C1c2ccccc2C(=O)N1Cc1ccc(OCCCCc2ccccc2)cc1,106 to 108 °C
9,CCOC(=O)C(=CNc1cccc2c1CCC2)C(=O)OCC,25 to 30 °C
10,COc1ccc2c(c1)sc1[nH]c(=O)c(=O)[nH]c12,> 300 °C
11,O=C1NC(Cc2ccccc2)C(C(=O)O)O1 (centres undefined),172 to 174 °C
12,COc1ccc(NC(=O)c2ccc(Cl)c(Cl)c2)cc1NCc1cccs1,185 to 188 °C
13,CCOP(=O)(CNc1ccc2cc([N+](=O)[O-])cc(-c3cccc4ccccc34)c2n1)OCC,187 to 188 °C
14,CNc1nc(SC)nc(N(C)C)c1[N+](=O)[O-],128 to 132 °C
15,N#Cc1ccccc1Cn1nnc2cc3c(cc2c1=O)OC1CCCN1C3=O (centres undefined),257 to 260 °C
16,Cc1nc(Cl)c(C#N)cc1-c1ccccc1,134 to 135 °C
17,O=C(O)C1CN(c2ccc(-c3noc(CCl)n3)cc2)C(=O)O1 (centres undefined),178 to 181 °C
18,O=C(O)c1cc2c(F)ccc(Br)c2s1,249 to 252 °C
19,COc1ccc(CNc2ccccc2C(=O)Nc2ccc(Cl)c(C(F)(F)F)c2)cn1,108 to 110 °C
20,c1ccc(-c2noc(-c3cccc4ccccc34)n2)nc1,132 to 136 °C
21,O=C1CN(c2ccc(C(Br)C(Br)c3ccccc3)cc2OCc2ccccc2)S(=O)(=O)N1 (centres undefined),173 to 175 °C
22,Cc1nc2ccccc2c(=O)n1CCN1CCC(Nc2nc3ccccc3n2Cc2ccc(F)cc2)CC1,186 °C
23,O=C(c1ccc(O)cc1)c1ccon1,125 to 127 °C
24,CCCCc1nc(SC2CCCCC2)c(C(=O)O)n1Cc1cc2c(cc1Cl)OCO2,257 °C
